In patent US20170137417A1 (priority 2014, published 2017):

Settings: Log P, [a] LC-UV, acidic range
Experimental: Measurement of Log P values was performed according to EEC directive 79/831 Annex V.A8 by HPLC (High Performance Liquid Chromatography) on reversed phase columns with the following methods:
[a] Log P value is determined by measurement of LC-UV, in an acidic range, with 0.1% formic acid in water and acetonitrile as eluent (linear gradient from 10% acetonitrile to 95% acetonitrile).
Calibration was done with straight-chain alkan2-ones (with 3 to 16 carbon atoms) with known Log P values (measurement of Log P values using retention times with linear interpolation between successive alkanones).

**Q.** For `C#CCOc1ccc(F)c(F)c1C1CC(c2csc(C3CCN(C(=O)Nc4cc(C)ccc4C)CC3)n2)=NO1` (stereo not shown) [Example I-3], which chromatographic logP is on record?
**A.** 3.45
